US20250090441A1, “ANTI-CARIES PEPTIDES WITH ANTIMICROBIAL AND REMINERALIZING PROPERTIES AND METHODS THEREOF” (THE UNIVERSITY OF HONG KONG, priority 2023, published 2025)
Converted amounts (≈) assume the structure as drawn. Where a SMILES comes first, the peptide text is derived from it.

Experiments:
[1] = tested on: Lacticaseibacillus casei, ATCC 334; test: MIC and MBC/MFC test; assay type: cell-based
Description: (§1) The antimicrobial properties of synthesized peptides against bacteria and fungi were evaluated using minimum inhibitory concentration (MIC) and minimum bactericidal/fungicidal concentration (MBC/MFC) tests (Wiegand et al. 2008). The tested species include Streptococcus mutans, UA159; Lacticaseibacillus casei, American Type Culture Collection (ATCC) 334; and Candida albicans, ATCC 90028. A 10 μL aliquot of bacterial culture (10^6 CFU/mL) in brain heart infusion (BHI) broth was added to 100 μL serial two-fold dilutions of experimental solutions. The optical density values at 660 nm were measured after 18 h of incubation. To determine the MBC, 10 μL of bacterial culture was taken from the well of MIC, and wells before and after the well of MIC, and transferred to blood agar. The test protocol for fungi was similar: the culture medium was a Roswell Park Memorial Institute (RPMI) 1640 Medium, the absorbance was measured at 520 nm, and Sabouraud dextrose agar was used for the MFC test. Chlorhexidine and medium were used as the positive and negative controls.

[2] = tested on: Streptococcus mutans, UA159; test: MIC and MBC/MFC test; assay type: cell-based
Description: as §1

[3] = tested on: Actinobacillus actinomycetemcomitans ATCC 29523; assay type: cell-based
Description: (§2) Common oral pathogenic bacterial strains were selected for this study. Streptococcus mutans ATCC 35668, Streptococcus sobrinus ATCC 33478, Lactobacillus acidophilus ATCC 9224, Lactobacillus rhamnosus ATCC10863, Actinomyces naeslundii ATCC 12104, Enterococcus faecalis ATCC 29212, Porphyromonas gingivalis ATCC 33277, and Actinobacillus actinomycetemcomitans ATCC 29523. All the strains were cultured anaerobically.
(§3) Brain heart infusion (BHI) medium was used for culture of S. mutans, S. sobrinus, L. acidophilus, L. rhamnosus, A. naeslundii, E. faecalis, and A. actinomycetemcomitans, whereas p.g. broth was used for culture of Porphyromonas gingivalis. The standard dilution method in a 96-well microplate was conducted in order to evaluate the antimicrobial efficacy of GAPI. Each well was filled with […] GAPI dilutions. In addition, serial twofold dilutions in concentrations ranging from 1280 μM to 1.25 μM were prepared. A 10 μL bacterial culture (10^6 CFU/mL) was added. Chlorhexidine was used as positive control, and medium was used as negative control. The plates were then anaerobically incubated at 37° C. for 24 h. The absorbance was measured at a wavelength of 660 nm in order to analyze the growth of microorganisms. […] The MBC endpoint was the lowest concentration at which 99.9% of the bacterial population was killed, which thus means the absence of bacteria. The morphology of the bacteria and fungi treated with synthesized peptides was analysed using transmission electron microscopy (TEM) (Philips CM100, Philips/FEI Corporation, Eindhoven, Holland). The sample was prepared following a previous study (Niu et al. 2021d). Copper grids were used to contain the semi-thin sections of bacteria/fungi for examination.

[4] = tested on: Actinomyces naeslundii ATCC 12104; assay type: cell-based
Description: as §2, §3

[5] = tested on: Enterococcus faecalis ATCC 29212; assay type: cell-based
Description: as §2, §3

[6] = tested on: Lactobacillus acidophilus ATCC 9224; assay type: cell-based
Description: as §2, §3

[7] = tested on: Lactobacillus rhamnosus ATCC10863; assay type: cell-based
Description: as §2, §3

[8] = tested on: Porphyromonas gingivalis ATCC 33277; assay type: cell-based
Description: as §2, §3

[9] = tested on: Streptococcus mutans ATCC 35668; assay type: cell-based
Description: as §2, §3

[10] = tested on: Streptococcus sobrinus ATCC 33478; assay type: cell-based
Description: as §2, §3

[11] = tested on: S. mutans biofilm (ATCC 35668) on dentine blocks; test: Antibiofilm effect on dentine, biofilm remineralization cycling model (CLSM, CFU); assay type: cell-based, Streptococcus mutans; details: 160 μM GAPI, 7 days cycling, n = 8
From the text: Dentine slices, 2 mm thick, were cut from sound extracted third molars. Ultra-fine 4000-grit sandpaper was used to polish these slices. Slices with defects were eliminated based on a stereomicroscope observation. A total of forty dentine slices were selected. Each slice was separated into two blocks and assigned to two groups. Nail varnish was used to coat half of the blocks as an internal control. S. mutans American Type Culture Collection 35668 was utilized in the present study. All the dentine blocks were placed into S. mutans culture (10^8 cells/mL) in a brain-heart infusion (BHI) broth containing 5% glucose to generate artificial caries. After a 3-day anaerobic culture at 37° C., the depth of the caries lesion surface was around 96 μm, which was observed using micro-computed tomography (micro-CT). […]
CLSM (Fluoview FV 1000, Olympus, Tokyo, Japan) was utilized to capture images to assess the S. mutans biofilm viability (n=8 for each group). […] The red-green ratio represented the dead-live ratio calculated using Image J version 1.53 t (National Institute of Health, Bethesda, MD, USA).
To determine the S. mutans biofilm growth kinetics, the colony-forming units (CFUs) were counted (n=8 for each group). […] All the plates were cultured anaerobically for 48 h at 37° C. before the CFUs were counted. The log CFU was calculated for a statistical analysis.

[12] = Streptococcus mutans (UA159), μM

CC(C)[C@@H]1NC(=O)[C@H](CCCN=C(N)N)NC(=O)[C@H](Cc2ccccc2)NC(=O)[C@@H](NC(=O)[C@H](Cc2c[nH]c3ccccc23)NC(=O)[C@H](CCCN=C(N)N)NC(=O)[C@H](CCCN=C(N)N)NC(=O)c2cc(O)c(O)c(O)c2)CSSC[C@@H](C(=O)N[C@@H](CCCN=C(N)N)C(=O)O)NC(=O)[C@H](CCCCN)NC(=O)[C@H](CCCN=C(N)N)NC(=O)[C@H](Cc2ccc(O)cc2)NC(=O)[C@@H]2CSSC[C@H](NC1=O)C(=O)N[C@@H](Cc1ccc(O)cc1)C(=O)N[C@@H](CCCN=C(N)N)C(=O)NCC(=O)N[C@@H](Cc1ccccc1)C(=O)N2 [GAPI, Gallic-Acid-Polyphemusin-I] (HELM PEPTIDE1{[O=C(c1cc(O)c(O)c(O)c1)[*:2]].R.R.W.C.F.R.V.C.Y.R.G.F.C.Y.R.K.C.R}$PEPTIDE1,PEPTIDE1,5:R3-18:R3|PEPTIDE1,PEPTIDE1,9:R3-14:R3$$$V2.0)
minimum inhibitory concentration [1]: 40 µM (≈ 104 µg/mL)
MBC/MFC ([1]; μM): 160
MIC ([1]; μM): 40
minimum inhibitory concentration ([2]; Streptococcus mutans): 40 µM (≈ 104 µg/mL)
MBC/MFC [2, 12]: 80
MIC [2, 12]: 40
MBC ([3]; ATCC 29523): 320 µM (≈ 834 µg/mL)
MIC ([3]; ATCC 29523, anaerobic, 24 h): 160 µM (≈ 417 µg/mL)
MBC ([4]; ATCC 12104): 640 µM (≈ 1670 µg/mL)
MIC ([4]; ATCC 12104, anaerobic, 24 h): 160 µM (≈ 417 µg/mL)
MBC ([5]; ATCC 29212): 640 µM (≈ 1670 µg/mL)
MIC ([5]; ATCC 29212, anaerobic, 24 h): 160 µM (≈ 417 µg/mL)
MBC ([6]; ATCC 9224): 80 µM (≈ 209 µg/mL)
MIC ([6]; ATCC 9224, anaerobic, 24 h): 40 µM (≈ 104 µg/mL)
MBC ([7]; ATCC 10863): 160 µM (≈ 417 µg/mL)
MIC ([7]; ATCC 10863, anaerobic, 24 h): 20 µM (≈ 52.1 µg/mL)
MBC ([8]; ATCC 33277): 640 µM (≈ 1670 µg/mL)
MIC ([8]; ATCC 33277, anaerobic, 24 h): 320 µM (≈ 834 µg/mL)
MBC ([9]; ATCC 35668): 160 µM (≈ 417 µg/mL)
MIC ([9]; ATCC 35668, anaerobic, 24 h): 80 µM (≈ 209 µg/mL)
MBC ([10]; ATCC 33478): 320 µM (≈ 834 µg/mL)
MIC ([10]; ATCC 33478, anaerobic, 24 h): 80 µM (≈ 209 µg/mL)
Viability: Dead-to-live ratio ([11]; CLSM): 0.77±0.13
Kinectics: Log10 CFU [11]: 7.45±0.32
